# Like-named read-outs stand apart in the source and are kept apart here.
# Experiment: Effect of a single 2 g dose of SYM-1219 on the plasma pharmacokinetics of EE2 and NET in healthy female subjects
# Assay type: in vivo, human
# Conditions: for AUC(0-t) / AUC(0-inf) / Cmax: female, human, plasma
# Procedure: Methods: Fifty-four (54) healthy female subjects, ages 18-65, received EE2/NET alone and in combination, where SYM-1219+EE2/NET were co-administered on Day 1 (Group B1; N=27) or SYM-1219 on Day 1 and EE2/NET on Day 2 (Group B2; N=27). Serial blood samples were drawn to measure plasma concentrations of EE2/NET. […] Safety was evaluated by recording of adverse events, vital signs, ECGs and standard laboratory tests.
# [1] = Group B1: Period 2 (EE2/NET followed by SYM-1219 2 grams on Day 1) vs Period 1 (EE2/NET alone)
# [2] = Group B1: SYM-1219 2 g and EE2/NET co-administered on Day 1
# [3] = Group B2: Period 2 (SYM-1219 2 grams on Day 1, EE2/NET on Day 2) vs Period 1 (EE2/NET alone)
smiles,measurement,setting,value
"C#C[C@]1(O)CC[C@H]2[C@@H]3CCc4cc(O)ccc4[C@H]3CC[C@@]21C [EE2, ethinyl estradiol]","EE2 AUC0-t, Geometric LSMean % Ratio (100 * Test/Reference)",[1],94.26%
same,"EE2 AUC0-∞, Geometric LSMean % Ratio (100 * Test/Reference)",[1],105.37%
same,"EE2 Cmax, Geometric LSMean % Ratio (100 * Test/Reference)",[1],71.07%
same,EE2 Cmax reduction,[2],29%
same,change in EE2 AUC,[2],no change
same,"EE2 AUC0-t, Geometric LSMean % Ratio (100 * Test/Reference)",[3],99.04%
same,"EE2 AUC0-∞, Geometric LSMean % Ratio (100 * Test/Reference)",[3],93.32%
same,"EE2 Cmax, Geometric LSMean % Ratio (100 * Test/Reference)",[3],104.96%
same,EE2 PK alteration,"Group B2: SYM-1219 2 g on Day 1, EE2/NET on Day 2",not altered
same,AUC(0-t),"Group B1 Period 1: EE2/NET alone, read-out: EE2 AUC0-t, Geometric Least Squares (LS) Means",0.627 ng·h/mL
same,AUC(0-t),"Group B1 Period 1: EE2/NET alone, read-out: EE2 AUC0-t, Mean",0.644 ng·h/mL
same,AUC(0-inf),"Group B1 Period 1: EE2/NET alone, read-out: EE2 AUC0-∞, Geometric Least Squares (LS) Means",0.878 ng·h/mL
same,AUC(0-inf),"Group B1 Period 1: EE2/NET alone, read-out: EE2 AUC0-∞, Mean",0.911 ng·h/mL
same,Cmax,"Group B1 Period 1: EE2/NET alone, read-out: EE2 Cmax, Geometric Least Squares (LS) Means",0.0779 ng/mL
same,Cmax,"Group B1 Period 1: EE2/NET alone, read-out: EE2 Cmax, Mean",0.0806 ng/mL
same,AUC(0-t),"Group B1 Period 2: EE2/NET followed by SYM-1219 2 grams on Day 1, read-out: EE2 AUC0-t, Geometric Least Squares (LS) Means",0.591 ng·h/mL
same,AUC(0-t),"Group B1 Period 2: EE2/NET followed by SYM-1219 2 grams on Day 1, read-out: EE2 AUC0-t, Mean",0.616 ng·h/mL
same,AUC(0-inf),"Group B1 Period 2: EE2/NET followed by SYM-1219 2 grams on Day 1, read-out: EE2 AUC0-∞, Geometric Least Squares (LS) Means",0.925 ng·h/mL
same,AUC(0-inf),"Group B1 Period 2: EE2/NET followed by SYM-1219 2 grams on Day 1, read-out: EE2 AUC0-∞, Mean",0.954 ng·h/mL
same,Cmax,"Group B1 Period 2: EE2/NET followed by SYM-1219 2 grams on Day 1, read-out: EE2 Cmax, Geometric Least Squares (LS) Means",0.0554 ng/mL
same,Cmax,"Group B1 Period 2: EE2/NET followed by SYM-1219 2 grams on Day 1, read-out: EE2 Cmax, Mean",0.0599 ng/mL
same,AUC(0-t),"Group B2 Period 1: EE2/NET alone, read-out: EE2 AUC0-t, Geometric Least Squares (LS) Means",0.65 ng·h/mL
same,AUC(0-t),"Group B2 Period 1: EE2/NET alone, read-out: EE2 AUC0-t, Mean",0.68 ng·h/mL
same,AUC(0-inf),"Group B2 Period 1: EE2/NET alone, read-out: EE2 AUC0-∞, Geometric Least Squares (LS) Means",0.945 ng·h/mL
same,AUC(0-inf),"Group B2 Period 1: EE2/NET alone, read-out: EE2 AUC0-∞, Mean",0.995 ng·h/mL
same,Cmax,"Group B2 Period 1: EE2/NET alone, read-out: EE2 Cmax, Geometric Least Squares (LS) Means",0.083 ng/mL
same,Cmax,"Group B2 Period 1: EE2/NET alone, read-out: EE2 Cmax, Mean",0.0891 ng/mL
same,AUC(0-t),"Group B2 Period 2: SYM-1219 2 grams on Day 1, EE2/NET on Day 2, read-out: EE2 AUC0-t, Geometric Least Squares (LS) Means",0.644 ng·h/mL
same,AUC(0-t),"Group B2 Period 2: SYM-1219 2 grams on Day 1, EE2/NET on Day 2, read-out: EE2 AUC0-t, Mean",0.669 ng·h/mL
same,AUC(0-inf),"Group B2 Period 2: SYM-1219 2 grams on Day 1, EE2/NET on Day 2, read-out: EE2 AUC0-∞, Geometric Least Squares (LS) Means",0.882 ng·h/mL
same,AUC(0-inf),"Group B2 Period 2: SYM-1219 2 grams on Day 1, EE2/NET on Day 2, read-out: EE2 AUC0-∞, Mean",0.937 ng·h/mL
same,Cmax,"Group B2 Period 2: SYM-1219 2 grams on Day 1, EE2/NET on Day 2, read-out: EE2 Cmax, Geometric Least Squares (LS) Means",0.0872 ng/mL
same,Cmax,"Group B2 Period 2: SYM-1219 2 grams on Day 1, EE2/NET on Day 2, read-out: EE2 Cmax, Mean",0.0926 ng/mL
